Test results taken from article PMC6438784 (Saudi Pharmaceutical Journal : SPJ, 2019).
Like-named read-outs stand apart in the source and are kept apart here.

Legend:
UGT1A6 [1] = details: UGT1A6 inhibition; ref Sridar et al., 2004; cited from earlier work
UGT1A8/10 = UGT1A8/10 inhibition in HIM, mycophenolic acid glucuronidation; type: in vitro ADME, human
CYP2C8 [2] = biological target: T1, CYP2C8 (Homo sapiens, UniProt P10632); test: CYP2C8 inhibition in pooled HLM, pioglitazone to hydroxypioglitazone; type: in vitro ADME
T1 sequence (P10632 1-490): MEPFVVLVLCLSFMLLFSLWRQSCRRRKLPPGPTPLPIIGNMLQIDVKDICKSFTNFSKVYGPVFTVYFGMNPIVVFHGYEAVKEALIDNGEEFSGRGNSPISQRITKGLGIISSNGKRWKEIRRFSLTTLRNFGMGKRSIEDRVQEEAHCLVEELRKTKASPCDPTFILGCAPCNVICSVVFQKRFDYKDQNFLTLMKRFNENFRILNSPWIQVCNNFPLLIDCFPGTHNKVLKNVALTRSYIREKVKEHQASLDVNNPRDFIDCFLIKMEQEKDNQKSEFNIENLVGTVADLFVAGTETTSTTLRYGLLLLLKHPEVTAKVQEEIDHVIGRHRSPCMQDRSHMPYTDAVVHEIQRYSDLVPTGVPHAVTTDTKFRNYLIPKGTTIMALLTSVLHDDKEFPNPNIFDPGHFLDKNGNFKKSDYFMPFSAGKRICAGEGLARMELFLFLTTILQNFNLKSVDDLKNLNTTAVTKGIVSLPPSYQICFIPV

[3] = ref Riche et al., 2013, cited from earlier work
UGT1A9 = biological target: T2, UGT1A9 (Homo sapiens, UniProt O60656); test: UGT1A9 inhibition in HLM, mycophenolic acid glucuronidation; type: in vitro ADME
T2 sequence (O60656 26-530): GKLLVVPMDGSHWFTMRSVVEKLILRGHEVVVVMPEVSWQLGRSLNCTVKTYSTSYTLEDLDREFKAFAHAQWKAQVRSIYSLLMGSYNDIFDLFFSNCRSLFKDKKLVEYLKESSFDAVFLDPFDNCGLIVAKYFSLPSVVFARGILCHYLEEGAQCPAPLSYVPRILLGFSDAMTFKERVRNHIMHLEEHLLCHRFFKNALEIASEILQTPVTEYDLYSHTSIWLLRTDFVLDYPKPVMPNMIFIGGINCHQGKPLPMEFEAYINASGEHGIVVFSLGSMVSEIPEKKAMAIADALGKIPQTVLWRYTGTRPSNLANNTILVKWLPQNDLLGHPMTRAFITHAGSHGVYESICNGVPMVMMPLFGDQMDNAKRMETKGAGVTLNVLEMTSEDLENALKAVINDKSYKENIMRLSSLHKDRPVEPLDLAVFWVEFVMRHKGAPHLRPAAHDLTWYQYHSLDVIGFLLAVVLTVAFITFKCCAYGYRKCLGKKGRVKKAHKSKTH

CYP2C8 [4] = biological target: T1, CYP2C8; test: CYP2C8 inhibition in pooled HLM, amodiaquine to desethylamodiaquine; type: in vitro ADME; details: for IC50: amodiaquine
UGT1A6 [5] = biological target: T3, UGT1A6 (Homo sapiens, UniProt P19224); test: UGT1A6 inhibition in HLM, serotonin glucuronidation; type: in vitro ADME; details: for IC50: HLM
T3 sequence (P19224 27-532): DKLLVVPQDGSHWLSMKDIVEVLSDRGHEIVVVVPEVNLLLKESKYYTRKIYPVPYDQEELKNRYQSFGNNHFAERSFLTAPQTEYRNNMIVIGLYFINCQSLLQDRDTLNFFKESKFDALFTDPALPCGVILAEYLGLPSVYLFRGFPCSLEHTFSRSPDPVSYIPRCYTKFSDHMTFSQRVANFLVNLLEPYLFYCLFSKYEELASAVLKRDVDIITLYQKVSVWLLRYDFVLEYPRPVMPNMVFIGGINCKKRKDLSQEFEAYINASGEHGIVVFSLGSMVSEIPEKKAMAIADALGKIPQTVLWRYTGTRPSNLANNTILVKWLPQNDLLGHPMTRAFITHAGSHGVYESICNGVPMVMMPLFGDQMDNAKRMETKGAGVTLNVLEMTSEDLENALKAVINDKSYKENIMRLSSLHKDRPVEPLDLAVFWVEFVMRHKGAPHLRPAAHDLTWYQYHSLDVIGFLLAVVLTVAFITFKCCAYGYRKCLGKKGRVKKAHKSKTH

[6] = rats, ref Yeo et al., 2013, cited from earlier work
UGT1A1 = biological target: T4, UGT1A1 (Homo sapiens, UniProt P22309); test: UGT1A1 inhibition in HLM, β-estradiol glucuronidation; type: in vitro ADME
T4 sequence (P22309 26-533): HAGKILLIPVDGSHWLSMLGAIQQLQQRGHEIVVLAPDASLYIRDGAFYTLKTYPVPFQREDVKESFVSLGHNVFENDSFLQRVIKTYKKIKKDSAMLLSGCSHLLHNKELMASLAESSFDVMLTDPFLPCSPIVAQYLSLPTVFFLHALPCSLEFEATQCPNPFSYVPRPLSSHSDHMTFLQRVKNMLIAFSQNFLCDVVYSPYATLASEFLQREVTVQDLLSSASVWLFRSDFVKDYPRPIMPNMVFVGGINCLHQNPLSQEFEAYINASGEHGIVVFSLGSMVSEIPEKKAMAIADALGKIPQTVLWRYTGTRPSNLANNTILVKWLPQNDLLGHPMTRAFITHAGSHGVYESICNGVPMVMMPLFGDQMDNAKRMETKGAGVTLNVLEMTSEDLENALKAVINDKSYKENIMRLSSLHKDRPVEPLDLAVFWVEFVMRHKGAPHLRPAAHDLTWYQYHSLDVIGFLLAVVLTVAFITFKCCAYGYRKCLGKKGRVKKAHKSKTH

[7] = rats; ref Kapetanovic et al., 2011; cited from earlier work
[8] = initial screening, RDI 250 mg / rough IC50

Question: Which IC50 (UGT1A6 [1]) does the source give for `COc1cc(C2Oc3cc([C@H]4Oc5cc(O)cc(O)c5C(=O)[C@@H]4O)ccc3OC2CO)ccc1O` (some centres unmarked) [Silybin] here?
Answer: 28 µM

Question: Which IC50 at 30 min (UGT1A8/10; human, human intestinal microsomes, pH 7.4, probe mycophenolic acid (70 μM)) does the source give for `COc1cc(/C=C/c2ccc(O)cc2)cc(OC)c1` [pterostilbene] here?
Answer: 92.7 ± 18.4 µM

Question: What about the VDI (UGT1A8/10; initial screening) of the same compound?
Answer: 10.5 L

Question: What about the V/D index (UGT1A8/10; [8]) of the same compound?
Answer: 10.53 L/dose

Question: And the IC50 (CYP2C8 [2])?
Answer: 17.9 ± 2.2 µM

Question: And the “Effect on blood pressure” value ([3]; 250 mg daily dose)?
Answer: reduction in blood pressure

Question: What about the “Safety of long term use” value ([3]; humans, 250 mg/day) of the same compound?
Answer: safe

Question: What about the IC50 (UGT1A9) of the same compound?
Answer: > 100 µM

Question: What about the inhibition at 30 min (UGT1A9; human, human liver microsomes, pH 7.4, probe mycophenolic acid (240 μM)) of the same compound?
Answer: < 50%

Question: And the V/D index (UGT1A9; [8])?
Answer: 3.89 L/dose

Question: And the IC50 (CYP2C8 [4]; Precise IC50, confirmatory experiment, HLM, mean ± SE)?
Answer: 3.12 µM

Question: What about the IC50 (CYP2C8 [4]; Rough IC50, initial screening, pooled HLM, desethylamodiaquine formation, mean ± standard error) of the same compound?
Answer: 26.9 ± 5.6 µM

Question: What about the V/D index (CYP2C8 [4]; [8]) of the same compound?
Answer: 36.30 L/dose

Question: And the IC50 (UGT1A6 [5]; Precise IC50, confirmatory experiment, serotonin, mean ± SE)?
Answer: 15 µM

Question: What about the IC50 (UGT1A6 [5]; Rough IC50, initial screening, serotonin glucuronide formation, mean ± standard error) of the same compound?
Answer: 26.7 ± 40.7 µM

Question: What about the V/D index (UGT1A6 [5]; [8]) of the same compound?
Answer: 36.50 L/dose

Question: And the “Decrease of bioavailability by fasting” value ([6]; fasting)?
Answer: ~55%

Question: And the Clearance ([6]; intravenous dose of 2.5 mg/kg)?
Answer: rapid

Question: And the Bioavailability ([6]; oral aqueous solution)?
Answer: 15%

Question: What about the IC50 (UGT1A1; Rough IC50, initial screening, HLM, β-estradiol) of the same compound?
Answer: > 500 µM

Question: And the inhibition at 30 min (UGT1A1; human, human liver microsomes, pH 7.4, probe β-estradiol (25 μM))?
Answer: < 50%

Question: And the V/D index (UGT1A1; [8])?
Answer: <2 L/dose

Question: Which Bioavailability [7] does the source give for `Oc1ccc(/C=C/c2cc(O)cc(O)c2)cc1` [resveratrol] here?
Answer: 20%
